Values quoted from earlier work in patent publication US20200093783A1, “Preparation and Anti-HepG2 Application for Urushiol-Based pH Response Micelle Encapsulating Paclitaxel” (Nanjing Zhongsen Biological Technology Co., Ltd., priority 2019, published 2020).

Tested on: most of tumor cells
Conditions: background statement

urushiol
IC50 (50% inhibiting concentration): 4 µg/mL
